Experimental data as given in the supplement of paper PMC10307832.

Legend:
Assay in all cases: relative viability (nuclei count vs DMSO), 5 days (fraction); higher = more cells survive
NCI-H1623 = system: NCI-H1623
Method in brief: (§1)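 Lung cancer cell lines, seeded in 1536-well plates, were treated the following day by pin tool with a single drug or with five library-drug doses (not always all listed) in √10 steps on top of a fixed anchor-drug dose. Cells were fixed and nuclei stained in one step after 5 days, and nuclei were counted. Relative viability is the nuclei count for treated wells divided by that for vehicle wells, reported as medians of duplicate plates.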

NCI-H1648 = system: NCI-H1648
Method in brief: as §1

NCI-H661 = system: NCI-H661
Method in brief: as §1

EMC-BAC-2 = system: EMC-BAC-2
Method in brief: as §1

NCI-H1437 = system: NCI-H1437
Method in brief: as §1

HCC-78 = system: HCC-78
Method in brief: as §1

ABC-1 = system: ABC-1
Method in brief: as §1

NCI-H1395 = system: NCI-H1395
Method in brief: as §1

NCI-H23 = system: NCI-H23
Method in brief: as §1

For `COCC1(CO)C(=O)C2CCN1CC2` (centres undefined) [PRIMA-1MET] + COc1cccc2cc(-c3nc([C@H]4CC[C@H](C(=O)O)CC4)n4ncnc(N)c34)[nH]c12 [OSI-027] (partner 0.5 µM), the relative viability (NCI-H1623; first compound 0.2 µM) was 0.374, the relative viability (NCI-H1623; first compound 0.6325 µM) was 0.405 and the relative viability (NCI-H1623; first compound 2 µM) was 0.445. The relative viability (NCI-H1623; first compound 6.325 µM) was 0.42, the relative viability (NCI-H1623; first compound 20 µM) was 0.303 and the relative viability (NCI-H1648; first compound 0.2 µM) was 0.24. For the same molecule, the relative viability (NCI-H1648; first compound 0.6325 µM) was 0.252, the relative viability (NCI-H1648; first compound 2 µM) was 0.283 and the relative viability (NCI-H1648; first compound 6.325 µM) was 0.256. It also gave a relative viability (NCI-H1648; first compound 20 µM) of 0.249, a relative viability (NCI-H661; first compound 0.2 µM) of 0.747 and a relative viability (NCI-H661; first compound 0.6325 µM) of 0.65. It also gave a relative viability (NCI-H661; first compound 2 µM) of 0.617, a relative viability (NCI-H661; first compound 6.325 µM) of 0.749 and a relative viability (NCI-H661; first compound 20 µM) of 0.622. For the same molecule, the relative viability (EMC-BAC-2; first compound 0.2 µM) was 0.509, the relative viability (EMC-BAC-2; first compound 0.6325 µM) was 0.385 and the relative viability (EMC-BAC-2; first compound 6.325 µM) was 0.366. For the same molecule, the relative viability (EMC-BAC-2; first compound 20 µM) was 0.322, the relative viability (NCI-H1437; first compound 0.2 µM) was 1.03 and the relative viability (NCI-H1437; first compound 0.6325 µM) was 0.945. For the same molecule, the relative viability (NCI-H1437; first compound 2 µM) was 0.794, the relative viability (NCI-H1437; first compound 6.325 µM) was 0.893 and the relative viability (NCI-H1437; first compound 20 µM) was 0.887. The relative viability (HCC-78; first compound 0.2 µM) was 0.385, the relative viability (HCC-78; first compound 0.6325 µM) was 0.345 and the relative viability (HCC-78; first compound 6.325 µM) was 0.339. The relative viability (HCC-78; first compound 20 µM) was 0.199, the relative viability (ABC-1; first compound 0.2 µM) was 0.37 and the relative viability (ABC-1; first compound 0.6325 µM) was 0.401. It also gave a relative viability (ABC-1; first compound 2 µM) of 0.349, a relative viability (ABC-1; first compound 6.325 µM) of 0.48 and a relative viability (ABC-1; first compound 20 µM) of 0.0792. For the same molecule, the relative viability (NCI-H1395; first compound 0.2 µM) was 0.605, the relative viability (NCI-H1395; first compound 0.6325 µM) was 0.492 and the relative viability (NCI-H1395; first compound 2 µM) was 0.647. It also gave a relative viability (NCI-H1395; first compound 6.325 µM) of 0.659, a relative viability (NCI-H1395; first compound 20 µM) of 0.6 and a relative viability (NCI-H23; first compound 0.2 µM) of 0.456. It also gave a relative viability (NCI-H23; first compound 0.6325 µM) of 0.509, a relative viability (NCI-H23; first compound 2 µM) of 0.511 and a relative viability (NCI-H23; first compound 6.325 µM) of 0.568. It also gave a relative viability (NCI-H23; first compound 20 µM) of 0.476.

With `COCC1(CO)C(=O)C2CCN1CC2` (centres undefined) [PRIMA-1MET] + Cc1cc(Nc2cc(N3CCN(C)CC3)nc(Sc3ccc(NC(=O)C4CC4)cc3)n2)n[nH]1 [Tozasertib] (partner 0.1 µM) the relative viability (NCI-H1623; first compound 0.2 µM) was 0.474, the relative viability (NCI-H1623; first compound 0.6325 µM) was 0.449 and the relative viability (NCI-H1623; first compound 2 µM) was 0.445. The relative viability (NCI-H1623; first compound 6.325 µM) was 0.452, the relative viability (NCI-H1623; first compound 20 µM) was 0.367 and the relative viability (NCI-H1648; first compound 0.2 µM) was 0.415. For the same molecule, the relative viability (NCI-H1648; first compound 0.6325 µM) was 0.361, the relative viability (NCI-H1648; first compound 2 µM) was 0.391 and the relative viability (NCI-H1648; first compound 6.325 µM) was 0.574. For the same molecule, the relative viability (NCI-H1648; first compound 20 µM) was 0.465, the relative viability (NCI-H661; first compound 0.2 µM) was 0.369 and the relative viability (NCI-H661; first compound 0.6325 µM) was 0.354. It also gave a relative viability (NCI-H661; first compound 2 µM) of 0.357, a relative viability (NCI-H661; first compound 6.325 µM) of 0.343 and a relative viability (NCI-H661; first compound 20 µM) of 0.353. The relative viability (EMC-BAC-2; first compound 0.2 µM) was 0.335, the relative viability (EMC-BAC-2; first compound 0.6325 µM) was 0.332 and the relative viability (EMC-BAC-2; first compound 6.325 µM) was 0.277. For the same molecule, the relative viability (EMC-BAC-2; first compound 20 µM) was 0.191, the relative viability (NCI-H1437; first compound 0.2 µM) was 0.41 and the relative viability (NCI-H1437; first compound 0.6325 µM) was 0.408. It also gave a relative viability (NCI-H1437; first compound 2 µM) of 0.407, a relative viability (NCI-H1437; first compound 6.325 µM) of 0.411 and a relative viability (NCI-H1437; first compound 20 µM) of 0.407. It also gave a relative viability (HCC-78; first compound 0.2 µM) of 0.47, a relative viability (HCC-78; first compound 0.6325 µM) of 0.414 and a relative viability (HCC-78; first compound 6.325 µM) of 0.385. It also gave a relative viability (HCC-78; first compound 20 µM) of 0.228, a relative viability (ABC-1; first compound 0.2 µM) of 0.243 and a relative viability (ABC-1; first compound 0.6325 µM) of 0.188. The relative viability (ABC-1; first compound 2 µM) was 0.17, the relative viability (ABC-1; first compound 6.325 µM) was 0.145 and the relative viability (ABC-1; first compound 20 µM) was 0.259. It also gave a relative viability (NCI-H1395; first compound 0.2 µM) of 0.823, a relative viability (NCI-H1395; first compound 0.6325 µM) of 0.556 and a relative viability (NCI-H1395; first compound 2 µM) of 0.768. The relative viability (NCI-H1395; first compound 6.325 µM) was 0.885, the relative viability (NCI-H1395; first compound 20 µM) was 0.518 and the relative viability (NCI-H23; first compound 0.2 µM) was 0.507. It also gave a relative viability (NCI-H23; first compound 0.6325 µM) of 0.312, a relative viability (NCI-H23; first compound 2 µM) of 0.371 and a relative viability (NCI-H23; first compound 6.325 µM) of 0.292. The relative viability (NCI-H23; first compound 20 µM) was 0.097.

`COCC1(CO)C(=O)C2CCN1CC2` (centres undefined) [PRIMA-1MET] + Cc1nc(Nc2ncc(C(=O)Nc3c(C)cccc3Cl)s2)cc(N2CCN(CCO)CC2)n1 [Dasatinib] (partner 0.075 µM) was tested, and the relative viability (NCI-H1623; first compound 0.2 µM) was 0.517, the relative viability (NCI-H1623; first compound 0.6325 µM) was 0.563 and the relative viability (NCI-H1623; first compound 2 µM) was 0.518. For the same molecule, the relative viability (NCI-H1623; first compound 6.325 µM) was 0.577, the relative viability (NCI-H1623; first compound 20 µM) was 0.519 and the relative viability (NCI-H661; first compound 0.2 µM) was 0.858. The relative viability (NCI-H661; first compound 0.6325 µM) was 0.733, the relative viability (NCI-H661; first compound 2 µM) was 0.89 and the relative viability (NCI-H661; first compound 6.325 µM) was 0.883. The relative viability (NCI-H661; first compound 20 µM) was 0.796, the relative viability (EMC-BAC-2; first compound 0.2 µM) was 0.394 and the relative viability (EMC-BAC-2; first compound 0.6325 µM) was 0.298. The relative viability (EMC-BAC-2; first compound 6.325 µM) was 0.378, the relative viability (EMC-BAC-2; first compound 20 µM) was 0.247 and the relative viability (NCI-H1437; first compound 0.2 µM) was 0.435. It also gave a relative viability (NCI-H1437; first compound 0.6325 µM) of 0.184, a relative viability (NCI-H1437; first compound 2 µM) of 0.43 and a relative viability (NCI-H1437; first compound 6.325 µM) of 0.405. For the same molecule, the relative viability (NCI-H1437; first compound 20 µM) was 0.286, the relative viability (HCC-78; first compound 0.2 µM) was 0.427 and the relative viability (HCC-78; first compound 0.6325 µM) was 0.331. It also gave a relative viability (HCC-78; first compound 6.325 µM) of 0.442, a relative viability (HCC-78; first compound 20 µM) of 0.335 and a relative viability (ABC-1; first compound 0.2 µM) of 0.705. It also gave a relative viability (ABC-1; first compound 0.6325 µM) of 0.539, a relative viability (ABC-1; first compound 2 µM) of 0.58 and a relative viability (ABC-1; first compound 6.325 µM) of 0.451. The relative viability (ABC-1; first compound 20 µM) was 0.279, the relative viability (NCI-H1395; first compound 0.2 µM) was 0.409 and the relative viability (NCI-H1395; first compound 0.6325 µM) was 0.458. For the same molecule, the relative viability (NCI-H1395; first compound 2 µM) was 0.493, the relative viability (NCI-H1395; first compound 6.325 µM) was 0.38 and the relative viability (NCI-H1395; first compound 20 µM) was 0.396. It also gave a relative viability (NCI-H23; first compound 0.2 µM) of 0.692, a relative viability (NCI-H23; first compound 0.6325 µM) of 0.799 and a relative viability (NCI-H23; first compound 2 µM) of 0.687. It also gave a relative viability (NCI-H23; first compound 6.325 µM) of 0.721 and a relative viability (NCI-H23; first compound 20 µM) of 0.221.
